Entries after “also recorded” stand apart in the source; their conditions may differ.
Assays:
db/db mouse = db/db mouse study (rodent model of Type II diabetes); details: for db/db mouse Glu. (D 14): plasma glucose, 100 mg/kg daily oral gavage; for db/db mouse Glu. (D 14) / db/db mouse Trigs. (D 14): day 14; for effect on the thyroid hormone axis / effect on triglycerides / insulin sensitizing activity / effect on glucose / insulin sensitizing activity with thyroid axis suppression and triglyceride elevations: rodent models of Type II Diabetes
Description: Mice (obtained from Jackson Laboratory), ZDF rats (obtained from Genetic Models Inc.) and fa/fa rats (obtained from either Charles River, or Harlan) were maintained on 12-hour light/dark cycle. […] Compounds were administered at the specified doses by oral gavage on the morning of each day of any experiment. Blood samples were obtained 3 hours after dosing from fed animals under anesthesia and collected into heparinized capillary tubes from the tail vein.
RXRα:PPARγ heterodimer = biological target: T1, RXRα:PPARγ heterodimer (Homo sapiens, UniProt P19793); assay: RXR:PPARγ heterodimer co-transfection assay in CV-1 cells; format: cell-based; details: for PPARγ CV-1 (%) Synergy: maximal response in presence of 100 nM BRL49653 relative to BRL49653 alone; for RXRα:PPARγ Heterodimer Cotransfection Assay Synerg Efficacy (%): maximal response in presence of 100 nM BRL relative to response of BRL alone; for RXRα:PPARγ Heterodimer Cotransfection Assay Agonist Efficacy (%): maximal response relative to response of BRL 49653; for activity on the RXRα:PPARγ heterodimer in combination with the PPARγ ligand: synergy mode, with BRL 49653
T1 construct: expressed in transfected cells; host or cells: CV-1 cells
T1 sequence (P19793 1-462): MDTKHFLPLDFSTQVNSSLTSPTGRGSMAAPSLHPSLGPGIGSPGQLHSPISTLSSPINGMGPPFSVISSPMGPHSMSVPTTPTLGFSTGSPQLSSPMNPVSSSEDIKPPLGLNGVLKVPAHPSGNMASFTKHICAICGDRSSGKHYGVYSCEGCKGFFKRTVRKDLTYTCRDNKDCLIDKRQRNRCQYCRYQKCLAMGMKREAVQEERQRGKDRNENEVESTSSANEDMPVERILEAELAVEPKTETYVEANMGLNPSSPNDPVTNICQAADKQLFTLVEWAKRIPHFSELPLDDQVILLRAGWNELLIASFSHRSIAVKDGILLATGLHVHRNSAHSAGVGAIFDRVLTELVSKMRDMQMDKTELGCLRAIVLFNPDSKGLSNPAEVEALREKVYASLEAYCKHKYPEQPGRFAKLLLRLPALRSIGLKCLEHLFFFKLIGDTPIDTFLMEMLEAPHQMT
T1 sequence (P37231 1-505 partner): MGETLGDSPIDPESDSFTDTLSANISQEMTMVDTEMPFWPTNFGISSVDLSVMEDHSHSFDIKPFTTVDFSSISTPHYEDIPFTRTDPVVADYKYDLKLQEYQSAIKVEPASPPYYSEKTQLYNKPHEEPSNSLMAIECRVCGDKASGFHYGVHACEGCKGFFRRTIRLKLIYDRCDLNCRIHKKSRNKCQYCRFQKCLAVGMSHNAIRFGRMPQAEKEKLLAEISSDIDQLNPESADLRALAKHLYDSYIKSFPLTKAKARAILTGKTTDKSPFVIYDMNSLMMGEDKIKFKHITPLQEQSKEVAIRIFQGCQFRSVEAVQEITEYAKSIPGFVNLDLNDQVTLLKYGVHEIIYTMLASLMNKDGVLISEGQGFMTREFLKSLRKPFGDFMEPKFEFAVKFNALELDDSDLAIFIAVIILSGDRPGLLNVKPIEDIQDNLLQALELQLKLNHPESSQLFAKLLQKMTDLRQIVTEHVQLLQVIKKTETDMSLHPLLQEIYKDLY
Description: For determination of agonist activity in the context of the RXR:RAR heterodimer or the RXR:PPARγ heterodimer, media containing compounds of the present invention in concentrations ranging from 10^−10 to 10^−5 M were added to the cells.
Compounds of the present invention were also tested for the ability to synergize with a PPARγ agonist in the context of an RXR heterodimer. […] Efficacy of the compounds of the present invention in the agonist and synergy assays was calculated as the maximum response obtained over the range of the dose response curve relative to the maximum response obtained by the reference agonist. Antagonist efficacy was determined as a function (%) of maximal inhibition.
To examine the effects of the compounds of the present invention on the transcriptional properties of the RXR:PPARγ, a heterodimer cotransfection assay as described above was employed.

[1] = system: mice transgenic for the human apolipoprotein A-I gene; assay: transgenic mice carrying the human apo A-I gene (HDL cholesterol, triglycerides); format: in vivo, mouse
Source text: Mice transgenic for the human apolipoprotein A-I gene (obtained from Jackson Laboratory) were used to evaluate PPARalpha mediated effects on HDL cholesterol. The mice were handled as described above for db/db mice, except that they were fed Purina 5001.

[2] = % correction relative to lean values
[3] = plasma triglycerides, % correction relative to lean values, NC = no change

| SMILES | db/db mouse Glu. (D 14) (db/db mouse; [2]) [%] | db/db mouse Trigs. (D3) (db/db mouse; plasma triglycerides, % correction relative to lean values, day 3, NC = no change) [%] | db/db mouse Trigs. (D 14) (db/db mouse; [3]) [%] | effect on the thyroid hormone axis (db/db mouse) | effect on triglycerides (db/db mouse) | insulin sensitizing activity / effect on glucose (db/db mouse) | activity on the RXRα:PPARγ heterodimer, tested alone (RXRα:PPARγ heterodimer) | PPARγ CV-1 (%) Synergy (RXRα:PPARγ heterodimer) [%] | RXRα:PPARγ Heterodimer Cotransfection Assay Synerg Efficacy (%) (RXRα:PPARγ heterodimer) | RXRα:PPARγ Heterodimer Cotransfection Assay Agonist Efficacy (%) (RXRα:PPARγ heterodimer) | activity on the RXRα:PPARγ heterodimer in combination with the PPARγ ligand (RXRα:PPARγ heterodimer) | triglycerides [1] | insulin sensitizing activity with thyroid axis suppression and triglyceride elevations (db/db mouse) | db/db mouse T4 (D 3) (db/db mouse; total T4 as % of obese control values, day 3, NC = no change) [%] |
| --- | --- | --- | --- | --- | --- | --- | --- | --- | --- | --- | --- | --- | --- | --- |
| COc1c(/C(C)=C/C=C/C(C)=C/C(=O)O)cc(C(C)(C)C)cc1C(C)(C)C [Compound L1] | 96 | 300 | 54 | suppress the thyroid hormone axis | raise triglycerides | efficacious insulin sensitizers | both agonist and synergistic activity similar to that seen with LGD1069 and LG100268 | 166 | 166 | 59 | both agonist and synergistic activity similar to that seen with LGD1069 and LG100268 | substantially raise triglycerides | – | – |
| CCCOc1c(/C(C)=C/C=C/C(C)=C/C(=O)O)cc(C(C)(C)C)cc1C(C)(C)C [Compound L3] | 75 | – | 133 | absence of detectable suppression of the thyroid hormone axis; also recorded: does not | – | – | only weakly active alone | 25 | 25 | 6 | active in the presence of the PPARγ ligand | – | maintain the desirable insulin sensitizing activity and eliminate or reduce both the suppression of the thyroid axis and triglyceride elevations; also recorded: maintain the desirable insulin sensitizing activity and minimize both the suppression of the thyroid axis and triglyceride elevations | – |
| CCCCCCCOc1c(/C(C)=C/C=C/C(C)=C/C(=O)O)cc(C(C)(C)C)cc1C(C)(C)C [Compound L5] | 0 | – | – | no effect | no effect | no effect | not active as an agonist | 6 | 6 | 4 | not active as an agonist | – | – | – |
| CCOc1c(/C(C)=C/C=C/C(C)=C/C(=O)O)cc(C(C)(C)C)cc1C(C)(C)C [Compound L2] | 91 | – | 116 | suppresses thyroid hormone axis | – | – | partial agonist alone | 69 | 69 | 14 | stronger activity in combination with the PPARγ ligand | – | – | 45 |
| CCCCOc1c(/C(C)=C/C=C/C(C)=C/C(=O)O)cc(C(C)(C)C)cc1C(C)(C)C [Compound L4] | 50 | – | 105 | absence of detectable suppression of the thyroid hormone axis | – | – | only weakly active alone | 20 | 20 | 3 | active in the presence of the PPARγ ligand | – | maintain the desirable insulin sensitizing activity and eliminate or reduce both the suppression of the thyroid axis and triglyceride elevations; also recorded: maintain the desirable insulin sensitizing activity and minimize both the suppression of the thyroid axis and triglyceride elevations | – |

Source: patent US20040049072A1, “RXR modulators with improved pharmacologic profile” (priority 1999, published 2004)
